Structures can show the parent of a compound that is named as a salt.
These compounds were tested against human PDE1B enzyme (Homo sapiens (Human), UniProt Q01064) (assay: IMAP TR-FRET PDE1B enzymatic assay). Conditions: negative log of half-maximal molar inhibitory concentration; 200 nM FAM-cAMP; values given as bins.
Format: biochemical
In short: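 Full-length GST-tagged human PDE1B (250 pg/well) in IMAP BSA buffer with 10 U/ml calmodulin and 2.5 mM CaCl2; compound pre-incubated 5 min at room temperature, then 200 nM (final) FAM-cAMP for 30 min. IMAP binding reagent/Tb added, 1 h; TR-FRET 520/490 ratio read. IC50 from sigmoidal dose-response fit.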
With `Cc1oc2ncnc(NC3(C)CC3)c2c1C(=O)N1CCC(Oc2cccc(F)c2)C1` (stereo not drawn) [Example 398, 5-[3-(3-Fluorophenoxy)pyrrolidine-1-carbonyl]-6-methyl-N-(1-methylcyclopropyl)furo[2,3-d]pyrimidin-4-amine] the “PDE1b (pIC50)” value was >8. For `Cc1oc2ncnc(NC3(C)CC3)c2c1C(=O)N1CCC(c2ccc(F)cc2)C1` (stereo not drawn) [Example 57, 5-[3-(4-Fluorophenyl)pyrrolidine-1-carbonyl]-6-methyl-N-(1-methylcyclopropyl)furo[2,3-d]pyrimidin-4-amine], the “PDE1b (pIC50)” value was >8. `Cc1oc2ncnc(NC3(C)CC3)c2c1C(=O)NCCOc1ccccc1F` [Example 559, N-[2-(2-Fluorophenoxy)ethyl]-6-methyl-4-[(1-methylcyclopropyl)amino]furo[2,3-d]pyrimidine-5-carboxamide] was tested, and the “PDE1b (pIC50)” value was >8. `COc1ccc([C@@H](C)NC(=O)c2c(C)oc3ncnc(NC4(C)CC4)c23)c(F)c1` [Example 306, N-[(1R)-1-(2-Fluoro-4-methoxyphenyl)ethyl]-6-methyl-4-[(1-methylcyclopropyl)amino]furo[2,3-d]pyrimidine-5-carboxamide] was tested, and the “PDE1b (pIC50)” value was >8. `Cc1ccc(N2CCN(C(=O)c3c(C)oc4ncnc(NC5(C)CC5)c34)CC2)nc1` [Example 44, 6-Methyl-N-(1-methylcyclopropyl)-5-[4-(5-methylpyridin-2-yl)piperazine-1-carbonyl]furo[2,3-d]pyrimidin-4-amine] was tested, and the “PDE1b (pIC50)” value was >8. For `Cc1oc2ncnc(NC3(C)CC3)c2c1C(=O)NCc1cnc(C2CC2)nc1` [Example 708, N-[(2-Cyclopropylpyrimidin-5-yl)methyl]-6-methyl-4-[(1-methylcyclopropyl)amino]furo[2,3-d]pyrimidine-5-carboxamide], the “PDE1b (pIC50)” value was >8. `Cc1oc2ncnc(NC3(C)CC3)c2c1C(=O)N1CCN(c2ncccc2F)CC1` [Example 152, 5-[4-(3-Fluoropyridin-2-yl)piperazine-1-carbonyl]-6-methyl-N-(1-methylcyclopropyl)furo[2,3-d]pyrimidin-4-amine] was tested, and the “PDE1b (pIC50)” value was >8.

Same assay, conditions: negative log of half-maximal molar inhibitory concentration; 200 nM FAM-cAMP; values given as bins; read-out: PDE1b (pIC50) (converted)
For `CCc1nccc(CNC(=O)c2c(C)oc3ncnc(NC4(C)CC4)c23)n1` [Example 726, N-[(2-Ethylpyrimidin-4-yl)methyl]-6-methyl-4-[(1-methylcyclopropyl)amino]furo[2,3-d]pyrimidine-5-carboxamide], the IC50 was 10 to 100 nM. For `Cc1oc2ncnc(NC3(C)CC3)c2c1C(=O)N1CCc2c(nc(C(C)C)[nH]c2=O)C1` [Example 22, 2-Isopropyl-7-(6-methyl-4-((1-methylcyclopropyl)amino)furo[2,3-d]pyrimidine-5-carbonyl)-5,6,7,8-tetrahydropyrido[3,4-d]pyrimidin-4(3H)-one], the IC50 was 10 to 100 nM. In the case of `Cc1oc2ncnc(NC3(C)CC3)c2c1C(=O)NCc1cc(C(C)C)on1` [Example 324, 6-Methyl-4-[(1-methylcyclopropyl)amino]-N-{[5-(propan-2-yl)-1,2-oxazol-3-yl]methyl}furo[2,3-d]pyrimidine-5-carboxamide], the IC50 is reported as 10 to 100 nM. `Cc1oc2ncnc(NC3(C)CC3)c2c1C(=O)N1CCOC2(CCc3ccccc32)C1` (stereo not drawn) [Example 378, 5-({2,3-Dihydrospiro[indene-1,2′-morpholine]-4′-yl}carbonyl)-6-methyl-N-(1-methylcyclopropyl)furo[2,3-d]pyrimidin-4-amine] gave an IC50 of 100 to 1000 nM. Compound `Cc1oc2ncnc(NC3(C)CC3)c2c1C(=O)NCc1cn2ccnc2cn1` [Example 719, N-{Imidazo[1,2-a]pyrazin-6-ylmethyl}-6-methyl-4-[(1-methylcyclopropyl)amino]furo[2,3-d]pyrimidine-5-carboxamide] has an IC50 of 10 to 100 nM. Work on `Cc1oc2ncnc(NC3(C)CC3)c2c1C(=O)N1CC[C@@H]2CCCC[C@H]2C1` (stereo in doubt) [Example 271, 5-[(4aS,8aR)-Decahydroisoquinoline-2-carbonyl]-6-methyl-N-(1-methylcyclopropyl)furo[2,3-d]pyrimidin-4-amine] yielded an IC50 of 10 to 100 nM. In the case of `Cc1oc2ncnc(NC3(C)CC3)c2c1C(=O)N1CCCN(c2ccccc2F)CC1` [Example 156, 5-[4-(2-Fluorophenyl)-1,4-diazepane-1-carbonyl]-6-methyl-N-(1-methylcyclopropyl)furo[2,3-d]pyrimidin-4-amine], the IC50 is reported as 10 to 100 nM. Compound `Cc1oc2ncnc(NC3(C)CC3)c2c1C(=O)NCCc1nc2cc(F)ccc2o1` [Example 730, N-[2-(5-Fluoro-1,3-benzoxazol-2-yl)ethyl]-6-methyl-4-[(1-methylcyclopropyl)amino]furo[2,3-d]pyrimidine-5-carboxamide] has an IC50 of 10 to 100 nM. With `Cc1oc2ncnc(NC3(C)CC3)c2c1C(=O)NC1(c2ccccc2)COC1` [Example 130, 6-Methyl-4-[(1-methylcyclopropyl)amino]-N-(3-phenyloxetan-3-yl)furo[2,3-d]pyrimidine-5-carboxamide] the IC50 was 10 to 100 nM. Compound `CCCCNC(=O)c1c(C)oc2ncnc(NC3(C)CC3)c12` [Example 213, N-Butyl-6-methyl-4-[(1-methylcyclopropyl)amino]furo[2,3-d]pyrimidine-5-carboxamide] has an IC50 of 10 to 100 nM. Compound `Cc1oc2ncnc(NC3(C)CC3)c2c1C(=O)N1CC(F)(c2ccccc2)C1` [Example 314, 5-(3-Fluoro-3-phenylazetidine-1-carbonyl)-6-methyl-N-(1-methylcyclopropyl)furo[2,3-d]pyrimidin-4-amine] has an IC50 of 10 to 100 nM. Work on `Cc1oc2ncnc(NC3(C)CC3)c2c1C(=O)NC1(C2CCOCC2)CC1` [Example 300, 6-Methyl-4-[(1-methylcyclopropyl)amino]-N-[1-(oxan-4-yl)cyclopropyl]furo[2,3-d]pyrimidine-5-carboxamide] yielded an IC50 of 10 to 100 nM. For `Cc1cnc(CNC(=O)c2c(C)oc3ncnc(NC4(C)CC4)c23)o1` [Example 448, 6-Methyl-N-[(5-methyl-1,3-oxazol-2-yl)methyl]-4-[(1-methylcyclopropyl)amino]furo[2,3-d]pyrimidine-5-carboxamide], the IC50 was 10 to 100 nM. `COCCn1nc(C)c(NC(=O)c2c(C)oc3ncnc(NC4(C)CC4)c23)c1C` [Example 420, N-[1-(2-Methoxyethyl)-3,5-dimethyl-1H-pyrazol-4-yl]-6-methyl-4-[(1-methylcyclopropyl)amino]furo[2,3-d]pyrimidine-5-carboxamide] showed an IC50 of 10 to 100 nM. For `C#CCN(Cc1ccc(OC)cc1)C(=O)c1c(C)oc2ncnc(NC3(C)CC3)c12` [Example 606, N-[(4-Methoxyphenyl)methyl]-6-methyl-4-[(1-methylcyclopropyl)amino}-N-(prop-2-yn-1-yl)furo[2,3-d]pyrimidine-5-carboxamide], the IC50 was 10 to 100 nM. In the case of `Cc1oc2ncnc(NC3(C)CC3)c2c1C(=O)N1CCN(c2ccc(S(C)(=O)=O)cc2F)CC1` [Example 359, 5-[4-(2-Fluoro-4-methanesulfonylphenyl)piperazine-1-carbonyl]-6-methyl-N-(1-methylcyclopropyl)furo[2,3-d]pyrimidin-4-amine], the IC50 is reported as 10 to 100 nM. `COc1ccc(CCNC(=O)c2c(C)oc3ncnc(NC4(C)CC4)c23)cc1` [Example 619, N-[2-(4-Methoxyphenyl)ethyl]-6-methyl-4-[(1-methylcyclopropyl)amino]furo[2,3-d]pyrimidine-5-carboxamide] showed an IC50 of 10 to 100 nM. Compound `Cc1ccccc1NC(=O)c1c(C)oc2ncnc(NC3(C)CC3)c12` [Example 178, 6-Methyl-4-[(1-methylcyclopropyl)amino]-N-(2-methylphenyl)furo[2,3-d]pyrimidine-5-carboxamide] has an IC50 of 10 to 100 nM. `Cc1oc2ncnc(NC3(C)CC3)c2c1C(=O)N1CCc2c(ncnc2NCCF)C1` [Example 7, 5-{4-[(2-Fluoroethyl)amino]-5H,6H,7H,8H-pyrido[3,4-d]pyrimidine-7-carbonyl}-6-methyl-N-(1-methylcyclopropyl)furo[2,3-d]pyrimidin-4-amine trifluoroacetate] gave an IC50 of 10 to 100 nM. `Cc1oc2ncnc(NC3(C)CC3)c2c1C(=O)Nc1cnn(C)c1` [Example 141, 6-Methyl-N-(1-methyl-1H-pyrazol-4-yl)-4-[(1-methylcyclopropyl)amino]furo[2,3-d]pyrimidine-5-carboxamide] showed an IC50 of 10 to 100 nM. For `COc1cnc(C2CCN(C(=O)c3c(C)oc4ncnc(NC5(C)CC5)c34)CC2)nc1C` [Example 423, 5-[4-(5-Methoxy-4-methylpyrimidin-2-yl)piperidine-1-carbonyl]-6-methyl-N-(1-methylcyclopropyl)furo[2,3-d]pyrimidin-4-amine], the IC50 was 10 to 100 nM. `Cc1oc2ncnc(NC3(C)CC3)c2c1C(=O)Nc1ccn(C)n1` [Example 416, 6-Methyl-N-(1-methyl-1H-pyrazol-3-yl)-4-[(1-methylcyclopropyl)amino]furo[2,3-d]pyrimidine-5-carboxamide] showed an IC50 of 10 to 100 nM. Work on `Cc1oc2ncnc(NC3(C)CC3)c2c1C(=O)N1CCC(c2nccn2C)C1` (stereo not drawn) [Example 320, 6-Methyl-5-[3-(1-methyl-1H-imidazol-2-yl)pyrrolidine-1-carbonyl]-N-(1-methylcyclopropyl)furo[2,3-d]pyrimidin-4-amine] yielded an IC50 of 10 to 100 nM. In the case of `COc1ccc([C@H](C)NC(=O)c2c(C)oc3ncnc(NC4(C)CC4)c23)c(F)c1` [Example 305, N-[(1S)-1-(2-Fluoro-4-methoxyphenyl)ethyl]-6-methyl-4-[(1-methylcyclopropyl)amino]furo[2,3-d]pyrimidine-5-carboxamide], the IC50 is reported as 10 to 100 nM. Compound `Cc1oc2ncnc(NC3(C)CC3)c2c1C(=O)NCc1ncc(C(F)F)cn1` [Example 706, N-{[5-(Difluoromethyl)pyrimidin-2-yl]methyl}-6-methyl-4-[(1-methylcyclopropyl)amino]furo[2,3-d]pyrimidine-5-carboxamide] has an IC50 of 10 to 100 nM. For `Cc1nc(CNC(=O)c2c(C)oc3ncnc(NC4(C)CC4)c23)oc1C` [Example 728, N-[(Dimethyl-1,3-oxazol-2-yl)methyl]-6-methyl-4-[(1-methylcyclopropyl)amino]furo[2,3-d]pyrimidine-5-carboxamide], the IC50 was 10 to 100 nM.

Source: patent US20250145633A1, “SUBSTITUTED FURANOPYRIMIDINE COMPOUNDS AS PDE1 INHIBITORS” (Dart NeuroScience, LLC, priority 2017, published 2025)
